Experimental data from US7423068B2, “Control of parasitic mites of honey bees” (The United States of America as represented by the …, priority 2001, dated 2008).
Marks after values point to notes of the source that are not given here.

How the values were obtained:
Varroa mites [1] = assay: Bulls eye petri dish bioassay for attractiveness; type: in vivo, Varroa jacobsoni; settings: for % of Varroa at distance from Target Source 2.5 cm / % of Varroa at distance from Target Source 3.8 cm / % of Varroa at distance from Target Source 6.3 cm / % of Varroa in Target / % of Varroa at distance from Target Source 1.3 cm / % of Varroa at distance from Target Source 5.1 cm: 0.04 g of 30% 2-heptanone acrylic block
Description: A third bioassay to test for attractiveness of 2-heptanone to Varroa was conducted in petri dishes with a diameter of 13.97 cm and a volume of 76.64 cm^3. The dishes were prepared as described previously in the first bioassay of this Example using 20% gel formulation of 2-heptanone. However, the petri dishes for this bioassay were modified by drilling a hole 1.6 cm in diameter into the center of the dish. This hole was large enough to fit a 1.5 mL Eppendorf® tube which would serve as the dispenser for the 2-heptanone. The lid of each petri dish was labeled in a “bulls eye” fashion with concentric circles at 1.27 cm increments from the center where the Eppendorf® tube was located. The maximum distance from the center was 6.35 cm. The Eppendorf® tube is considered the target. In the treatment dishes, 0.04 g of 2-heptanone in acrylic block formulation (30% concentration) was placed in the Eppendorf® tube and covered with a small amount of sterile cotton. Control dishes were prepared in the same manner as the treatment dishes but the Eppendorf® tubes contained only cotton. Mites (4-5 per dish) were placed in each dish in the area furthest from the center where the Eppendorf® tube was located.
After the dishes were prepared a square section of mosquito netting large enough to cover the top of the petri dish was placed over the dish and secured with a rubber band. The mosquito netting was used instead of a lid on the dish. The mesh of the netting was wide enough to allow the 2-heptanone to volatilize, but prevented the mites from escaping. The marked lids were placed on top of the dishes every 30 minutes to document mite movement. After the measurements were made, the lids were immediately removed.
A fourth test of attractiveness was conducted in the petri dishes that were prepared as described above. In this test 0.06 g of 2-heptanone (30% concentration in acrylic block delivery system) was placed in the center target of the treatment plates. Control plates contained an empty Eppendorf® tube. The mites were placed 3.17 cm from the target. The mites could move closer or farther away from the target. Two treatment and two Control plates with 5 mites each were observed.

[2] = test system: wax moth (Galleria mellonella); assay: Control of wax moth in stored frames with drawn comb; type: in vivo; settings: 1, 2 or 3 slow release strips with 60 grams 2-heptanone, after 5 weeks; equipment without 2-heptanone totally infested
Excerpt: We conducted an experiment where we stored five frames with drawn comb in a nucleus colony box without bees present. In three nucleus colony boxes we placed 1, 2 or 3 strips containing 60 grams of 2-heptanone in a slow release formulation. In a fourth nucleus colony box we placed no 2-heptanone. Within 2 weeks after the start of the experiment, the equipment without 2-heptanone had wax moth adults present between the frames. The adults probably were laying eggs. After 5 weeks, the equipment without 2-heptanone was totally infested with wax moth. There still was no wax moth in any equipment containing 2-heptanone.

[3] = test system: honey bee (Apis mellifera L.) colony; assay: Maximum levels of 2-heptanone without negatively impacting bee behavior (observation hive); type: in vivo; settings: pure 2-heptanone up to 500 μL on filter paper (2700 ppm v/v or 0.27%), queenless two-frame hive, 23° C.
Description: A test was conducted with 2-heptanone in pure form to determine its effects on honey bee (Apis mellifera L.) colony behavior and ascertain if there was a maximum dose of 2 heptanone that could induce a colony to leave their hive. Two full sized frames were taken from a colony in our local apiary and placed inside a two-frame observation hive having a total volume of 8565 cm^3.These two frames contained adult worker bees only and were queenless. A 2-day period when no testing occurred was included to allow for colony adjustment to the new dwellings. The observation hive was set up inside a greenhouse with a 2.5 cm tube connected from the side of the observation hive to the side wall of the greenhouse. This tube served as an exit and entrance for the workers.
We fastened a strip of filter paper measuring 7.6 cm by 2.5 cm to the top inside frame of the observation colony with a thumbtack and applied an initial 100 μL of pure 2-heptanone to the filter paper and observed worker behavior. Subsequent applications of 40 μL of 2-heptanone were applied every 4 minutes with observations of worker behavior documented. Ambient temperature at the time of the observations was 23° C. […]
Our experiment ended when 500 μL of pure 2-heptanone was the total amount on our filter paper. Concentration of 500 μL of 2-heptanone in the two-frame observation hive was calculated to be 2700 ppm v/v or 0.27%.

Varroa mites [4] = assay: Varroa trapping device in a Varroa-infested 9-frame colony; type: in vivo, Varroa jacobsoni; settings: trap coated with 20% 2-heptanone gel, between brood frames, after 48 hrs
Excerpt: In a second test to determine if 2-heptanone is an attractant, a Varroa trapping device was placed in a Varroa-infested 9-frame colony for 48 hrs. The device was constructed by placing a 2.54 cm^2 piece of Dewill® Varroa Mite Detector Insert coated with a 20% concentration of 2-heptanone in a gel formulation and covered with a 0.63 cm (0.25 inch) wire mesh. A wire was placed through the top of the trap so that the trap dangled between the frames in the colony. The device was placed between frames containing brood.

[5] = in words; cited from earlier work
[6] = exposure 1 hr, significantly different from Control

CCCCCC(C)=O [2-Heptanone]
% of Varroa at distance from Target Source 2.5 cm (Varroa mites [1]; exposure 1 hr): 7.5% | % of Varroa at distance from Target Source 3.8 cm (Varroa mites [1]; exposure 1 hr): 25.0% | % of Varroa at distance from Target Source 6.3 cm (Varroa mites [1]; exposure 1 hr): 17.5% | % of Varroa in Target (Varroa mites [1]; exposure 1 hr): 0% | % of Varroa at distance from Target Source 1.3 cm (Varroa mites [1]; [6]): 27.5* % | % of Varroa at distance from Target Source 5.1 cm (Varroa mites [1]; [6]): 16.2* % | % of Varroa at distance from Target Source 1.3 cm (Varroa mites [1]; exposure 2 hrs): 32.5% | % of Varroa at distance from Target Source 2.5 cm (Varroa mites [1]; exposure 2 hrs): 20.0% | % of Varroa at distance from Target Source 3.8 cm (Varroa mites [1]; exposure 2 hrs): 12.5% | % of Varroa at distance from Target Source 5.1 cm (Varroa mites [1]; exposure 2 hrs): 15.0% | % of Varroa at distance from Target Source 6.3 cm (Varroa mites [1]; exposure 2 hrs): 10.0% | % of Varroa in Target (Varroa mites [1]; exposure 2 hrs): 7.5% | % of Varroa at distance from Target Source 1.3 cm (Varroa mites [1]; exposure 3 hrs): 45.6% | % of Varroa at distance from Target Source 2.5 cm (Varroa mites [1]; exposure 3 hrs): 10.6% | % of Varroa at distance from Target Source 3.8 cm (Varroa mites [1]; exposure 3 hrs): 22.5% | % of Varroa at distance from Target Source 5.1 cm (Varroa mites [1]; exposure 3 hrs): 12.5% | % of Varroa at distance from Target Source 6.3 cm (Varroa mites [1]; exposure 3 hrs): 7.5% | % of Varroa in Target (Varroa mites [1]; exposure 3 hrs): 3.1% | % of Varroa at distance from Target Source 1.3 cm (Varroa mites [1]; exposure 4 hrs): 42.2% | % of Varroa at distance from Target Source 2.5 cm (Varroa mites [1]; exposure 4 hrs): 13.3% | % of Varroa at distance from Target Source 3.8 cm (Varroa mites [1]; exposure 4 hrs): 20.0% | % of Varroa at distance from Target Source 5.1 cm (Varroa mites [1]; exposure 4 hrs): 18.8% | % of Varroa at distance from Target Source 6.3 cm (Varroa mites [1]; exposure 4 hrs): 5.5% | % of Varroa in Target (Varroa mites [1]; exposure 4 hrs): 0% | % of mites that moved into the target (Varroa mites [1]; fourth test, 0.06 g of 30% 2-heptanone acrylic block, 4 hr. observation, Controls 0.0%): 9.1% | % of mites that moved within 1.27 cm of the target (Varroa mites [1]; fourth test, 0.06 g of 30% 2-heptanone acrylic block, mites placed 3.17 cm from target, 4 hr. observation, Controls 6.2%): 38.4% | wax moth infestation of stored equipment [2]: no wax moth | bees exiting the observation hive [3]: At no time however, did all bees fully or permanently exit the observation hive | Varroa mites found stuck in the gel on the trap (Varroa mites [4]): several hundred | solubility in water [5]: very slightly soluble in water
